Assay results from US7884136B2, “Modified-release formulations of a bupropion salt” (Biovail Laboratories International S.R.L., priority 2005, dated 2011).
Like-named read-outs stand apart in the source and are kept apart here.

Key:
[1] = Moisture content of bupropion salts by KF; type: physicochemical
Method: (§1) The eight salts were first evaluated by HPLC, KF, pH and DSC for purity, water content, aqueous pH and possible polymorphs.
(§2) The salts were analysed by DSC (at 10° C./min from 30° C. up to 400° C.) and the pH (aq. 0.5%), and the moisture content by KF were also measured. The TGA was performed on the HCl, maleate, tosylate and HBr salts.

[2] = Forced degradation stability study of bupropion salts spiked with placebo/excipients, closed vials, 40° C./75% RH, HPLC assay and impurities
Method: The stability of the salts was evaluated based on the formation of the main degradation products (see below) as determined by HPLC analysis and the % potency (or assay) of the API, after specific time periods in the stability chamber. The effect of the addition of solvents, such as water, ethanol and isopropyl alcohol, was also studied.
The samples of each salt and the spiked salts with the bupropion HCl XL were prepared under the conditions mentioned in Table 4. […] The stability of the bupropion salts were evaluated based on the formation of the main degradation product 3-chlorobenzoic acid (3-CBZ) and the intermediate degradation products diketone 827U76 and the ketohydroxyl derivatives (20U78 and 852U77) (Scheme 2).
As mentioned above, the stability samples were prepared in 2 mL vials and used directly for assay and impurity analysis by HPLC without further sample preparations to minimize errors.

[3] = Release of bupropion base from bupropion HCl and HBr; type: physicochemical; settings: 150 mg of the salt tested
Method: It was previously observed that when 150 mg of bupropion HCl was tested for its release of bupropion, the base value that was released was 130 mg.

[4] = Comparative forced degradation of bupropion HCl and HBr API salts, closed glass bottle, 40° C./75% RH, HPLC; type: physicochemical; settings: closed glass bottle
Method: Further stability tests were performed by directly comparing bupropion HBr and bupropion HCl salts in forced degradation studies. […] At specified times, the material in the bottles was analyzed for the presence of degradation products and % potency (% assay).
The samples were exposed to the above conditions in a closed bottle for few days, and then subjected to HPLC analysis. The amount of the main degradation products present after treatment were compared with those amounts that were present initially.
The samples were analysed after 14 and 24 days (study-1) and 10 days (study II), in a quantitative manner by direct treatment of the whole content of the bottle as per the HPLC standard test method (P05.901.10).

[5] = pH of 0.5% aqueous solution of bupropion salts; type: physicochemical
Method: as §1, §2

[6] = Solubility of Bupropion HBr vs Bupropion HCl in water, EtOH, IPA; type: physicochemical
[7] = TGA experiment at 100° C., loss of API salt over time; type: physicochemical; settings: TGA at 100° C.
Method: The average weight of the excipients and the weight of the active pharmaceutical ingredient (API) present in the samples are presented in Table 72. […] FIG. 53 is a graph showing the loss of each salt over time in a TGA experiment at 100° C.

[8] = Thermal analysis by TGA of bupropion salts; type: physicochemical; settings: 400° C.
Method: 2-5 mg of each salt was placed in an aluminium pan and covered with its lid. DSC was run for each sample at the rate of 10° C./min (for HBr salt, different rates were used to investigate for polymorphs) from 30° C. to 400° C. TGA was also used for each of the HBr, HCl, maleate and tosylate salts.
as §2

[9] = In IPA/EtOH, 32 days, closed vials
[10] = In water, 32 days, closed vials
[11] = repeat study, 40 C/75% RH, 10 Days, Lot# STN06973, hydrochloride
[12] = repeat study, 40 C/75% RH, 10 Days, Lot# STN06978, hydrochloride
[13] = repeat study, 40 C/75% RH, Initial, Lot# STN06973, hydrochloride
[14] = repeat study, 40 C/75% RH, Initial, Lot# STN06978, hydrochloride

For `CC(NC(C)(C)C)C(=O)c1cccc(Cl)c1.Cl` (racemic) [Bupropion HCl, (±)-1-(3-chlorophenyl)-2-[(1,1-dimethylethyl)amino]-1-propanone hydrochloride, reference compound], the “Moisture Content (KF)” value ([1]; Table 3, supplier API) was 0.01%, the “KF (moisture content), Original (Initial APIs)” value ([1]; original API salts) was 0.0% and the “Order of stability (assay) with IPA & EtOH” value ([2]; DS and excipients spiked with IPA & EtOH, 32 days, closed vials, 40° C.) was “HCl>HBr>tosylate>maleate>fumarate”. The “Order of stability (assay) with water” value ([2]; DS and excipients spiked with water, 32 days, closed vials, 40° C.) was “tosylate>maleate>HCl>HBr>fumarate”, the “Content of impurity 3-CBZ, order of salts” value [2, 9] was “maleate > HBr > HCl > Fumarate” and the “Content of impurity 852U77, order of salts” value [2, 9] was “fumarate > HBr ≈ HCl ≈ maleate ≈ tosylate”. For the same compound, the “Total imp., order of salts” value [2, 9] was “fumarate > maleate > HBr > HCl > tosylate”, the “Content of impurity 3-CBZ, order of salts” value [2, 10] was “HCl > HBr ≈ maleate ≈ fumarate” and the “Content of impurity 852U77, order of salts” value [2, 10] was “fumarate > HBr > maleate > HCl”. The “Total imp., order of salts” value [2, 10] was “fumarate > HBr > HCl > tosylate > maleate”, the “Order of stability (assay, % potency)” value ([2]; salt plus excipients, 20 days, closed vial, 40° C./75% RH) was “HBr>HCl=tosylate>fumarate>maleate” and the “Base value of bupropion released” value [3] was 130 mg. The “% Assay” value ([4]; 40° C./75% RH, 14-Days) was 98.5%, the “% Impurities 3-CBZ” value ([4]; 40° C./75% RH, 14-Days) was 0.019% and the “% Impurities 20U78/dilu” value ([4]; 40° C./75% RH, 14-Days) was 0.038%. The “% Impurities 852U77” value ([4]; 40° C./75% RH, 14-Days) was 0.010%, the “% Impurities Total unknown” value ([4]; 40° C./75% RH, 14-Days) was 0.038% and the “Total (%) impurities” value ([4]; 40° C./75% RH, 14-Days) was 0.11%. The “% Assay” value ([4]; 40° C./75% RH, 24 Days) was 98.5%, the “% Impurities 3-CBZ” value ([4]; 40° C./75% RH, 24 Days) was 0.082% and the “% Impurities 20U78/dilu” value ([4]; 40° C./75% RH, 24 Days) was 0.040%. For the same compound, the “% Impurities 827U76” value ([4]; 40° C./75% RH, 24 Days) was 0.102%, the “% Impurities 852U77” value ([4]; 40° C./75% RH, 24 Days) was 0.023% and the “% Impurities Total unknown” value ([4]; 40° C./75% RH, 24 Days) was 0.049%. The “Total (%) impurities” value ([4]; 40° C./75% RH, 24 Days) was 0.30%, the “% Assay” value ([4]; 40° C./75% RH, Initial) was 100.4% and the “% Impurities 3-CBZ” value ([4]; 40° C./75% RH, Initial) was 0.002%. The “% Impurities 20U78/dilu” value ([4]; 40° C./75% RH, Initial) was 0.043%, the “% Impurities 852U77” value ([4]; 40° C./75% RH, Initial) was 0.003% and the “% Impurities Total unknown” value ([4]; 40° C./75% RH, Initial) was 0.044%. For the same compound, the “Total (%) impurities” value ([4]; 40° C./75% RH, Initial) was 0.09%, the “% Assay” value [4, 11] was 96.3% and the “% Impurities 3-CBZ” value [4, 11] was 0.110%. For the same compound, the “% Impurities 20U78/dilu” value [4, 11] was 0.047%, the “% Impurities 827U76” value [4, 11] was 0.045% and the “% Impurities 852U77” value [4, 11] was 0.047%. The “% Impurities Total unknown” value [4, 11] was 0.187%, the “Total (%) impurities” value [4, 11] was 0.44% and the “% Assay” value [4, 12] was 96.5%. For the same compound, the “% Impurities 3-CBZ” value [4, 12] was 0.278%, the “% Impurities 20U78/dilu” value [4, 12] was 0.057% and the “% Impurities 827U76” value [4, 12] was 0.141%. The “% Impurities 852U77” value [4, 12] was 0.124%, the “% Impurities Total unknown” value [4, 12] was 0.137% and the “Total (%) impurities” value [4, 12] was 0.74%. For the same compound, the “% Assay” value [4, 13] was 99.4%, the “% Impurities 3-CBZ” value [4, 13] was 0.003% and the “% Impurities 20U78/dilu” value [4, 13] was 0.040%. For the same compound, the “% Impurities Total unknown” value [4, 13] was 0.053%, the “Total (%) impurities” value [4, 13] was 0.10% and the “% Assay” value [4, 14] was 99.1%. For the same compound, the “% Impurities 3-CBZ” value [4, 14] was 0.002%, the “% Impurities 20U78/dilu” value [4, 14] was 0.04% and the “% Impurities Total unknown” value [4, 14] was 0.165%. The “Total (%) impurities” value [4, 14] was 0.21%, the “pH (aq. 0.5%), Original (Initial APIs)” value ([5]; 0.5% aqueous solution, original API salts) was 5.90 and the “pH (aq. 0.5%)” value ([5]; Table 3, supplier API) was 5.90. The solubility ([6]; ethanol, organic solvent or mixture, EtOH, read-out: Solubility, EtOH) was 80 mg/mL, the solubility ([6]; isopropanol, organic solvent or mixture, IPA, read-out: Solubility, IPA) was 10 mg/mL and the solubility ([6]; water, read-out: Solubility, Water) was 270 mg/mL. The “Disproportionation of the salt at elevated temperature” value [7] was “disproportionation of the HCl salt occurs with concomitant loss of gaseous HCl” and the “TGA: residue at 400° C.” value [8] was “minimal residues”.
